Measured values: US20120302584A1, “NOVEL SALTS FORMS OF PYRIMIDIN-5-YL ACETIC ACID DERIVATIVE” (BOEHRINGER INGELHEIM INTERNATIONAL GMBH, priority 2009, published 2012)
Converted amounts (≈) assume the structure as drawn. Structures can show the parent of a compound that is named as a salt.

What was measured:
[1] = Dynamic vapor sorption (water sorption/desorption); type: physicochemical; settings: 25° C.; for hygroscopicity (in words): conditions used in this analysis
Experimental: Vapor sorption/desorption was carried out using Surface Measurement Systems DVS-HT. Samples were placed into a foil insert placed on a sample pan. […] The equilibrium point of each step was reached when 0.002% of weight change was reached.

[2] = Kinetic solubility in sodium dodecyl sulfate solution at pH 6.8 and 37° C.; type: physicochemical; settings: for maximum solubility (kinetic solubility): pH 6.8, 0.2% sodium dodecyl sulfate (SDS) solution, after about 5 minutes
Experimental: FIG. 7 also depicts comparative kinetic solubility for the acid-free form of the compound of formula (I)(♦), a choline salt of the compound of formula (I)( ? ), and an ethylenediamine salt of the compound of formula (I) (▴).
After 60 minutes, the solubilities ranged from about 150 μg/mL (for the ethylenediamine salt of the compound of formula (I)) to about 245 μg/mL (for the choline salt of the compound of formula (I)).

[3] = pH 6.8, 0.2% SDS solution, after 60 minutes

Row | SMILES | hygroscopicity (in words) [1] | moisture gain through 85% relative humidity [1] | maximum solubility (kinetic solubility) [2] | solubility after 60 minutes (kinetic solubility) [2, 3] | further results
1 | CN(C)c1nc(Cc2ccc(NC(=O)c3ccc(C(F)(F)F)cc3)cc2)nc(N(C)C)c1CC(=O)O [N-methyl-D-glucamine salt of the invention] [[4,6-bis(dimethylamino)-2-(4-{[4-(trifluoromethyl)benzoyl]amino}benzyl)pyrimidin-5-yl] acetic acid] | mild hygroscopicity | about 3.7% | about 910 μg/mL | – | –
2 | CN(C)c1nc(Cc2ccc(NC(=O)c3ccc(C(F)(F)F)cc3)cc2)nc(N(C)C)c1CC(=O)O [[4,6-bis(dimethylamino)-2-(4-{[4-(trifluoromethyl)benzoyl]amino}benzyl)pyrimidin-5-yl] acetic acid, reference compound] | – | – | – | – | solubility kinetic at 60 min ([2]; 0.2% sodium dodecyl sulfate (SDS) solution, 37 °C, pH 6.8, aqueous with cosolvent or surfactant or cyclodextrin, pH 6.8, 0.2% SDS solution, after 60 minutes): ~245 µg/mL (≈ 489 µM)
3 | CN(C)c1nc(Cc2ccc(NC(=O)c3ccc(C(F)(F)F)cc3)cc2)nc(N(C)C)c1CC(=O)O [choline salt of the compound of formula (I)] [[4,6-bis(dimethylamino)-2-(4-{[4-(trifluoromethyl)benzoyl]amino}benzyl)pyrimidin-5-yl] acetic acid, reference compound] | – | – | about 960 μg/mL | – | –
4 | CN(C)c1nc(Cc2ccc(NC(=O)c3ccc(C(F)(F)F)cc3)cc2)nc(N(C)C)c1CC(=O)O [sodium salt of the invention, [4,6-bis(dimethylamino)-2-(4-{[4-(trifluoromethyl)benzoyl]amino}benzyl)pyrimidin-5-yl] acetic acid] | hygroscopic | about 17% | about 1010 μg/mL | – | moisture gain through 55% relative humidity ([1]; 55% relative humidity): less than 2%

Further lines, with some results ahead:

Row | hygroscopicity (in words) [1] | moisture gain through 85% relative humidity [1] | maximum solubility (kinetic solubility) [2] | solubility after 60 minutes (kinetic solubility) [2, 3] | SMILES | further results
5 | – | – | – | about 150 μg/mL | CN(C)c1nc(Cc2ccc(NC(=O)c3ccc(C(F)(F)F)cc3)cc2)nc(N(C)C)c1CC(=O)O [ethylenediamine salt of the compound of formula (I)] [[4,6-bis(dimethylamino)-2-(4-{[4-(trifluoromethyl)benzoyl]amino}benzyl)pyrimidin-5-yl] acetic acid, reference compound] | maximum solubility (kinetic solubility) ([2]; listed as ethylenediame salt of the compound of formula (I)): about 670 μg/mL
6 | – | – | about 50 μg/mL | essentially unchanged | CN(C)c1nc(Cc2ccc(NC(=O)c3ccc(C(F)(F)F)cc3)cc2)nc(N(C)C)c1CC(=O)O [free acid form of the compound of formula (I)] [[4,6-bis(dimethylamino)-2-(4-{[4-(trifluoromethyl)benzoyl]amino}benzyl)pyrimidin-5-yl] acetic acid] | –
